Where two headings read alike, the source gives them in different places.
Experiments:
[1] = biological target: T1, human NPY Y5 receptor (Homo sapiens, UniProt Q15761); experiment: NPY binding inhibition test ([125I]peptide YY binding to membranes of NPY Y5 receptor expressing cells); details: 25° C., 2 hours, membrane of NPY Y5 receptor expressing cells, read-out: IC50 against specific peptide YY binding
T1 construct: expressed in transfected cells; host or cells: COS-7, CHO and LM(tk-)
T1 sequence (Q15761 1-445): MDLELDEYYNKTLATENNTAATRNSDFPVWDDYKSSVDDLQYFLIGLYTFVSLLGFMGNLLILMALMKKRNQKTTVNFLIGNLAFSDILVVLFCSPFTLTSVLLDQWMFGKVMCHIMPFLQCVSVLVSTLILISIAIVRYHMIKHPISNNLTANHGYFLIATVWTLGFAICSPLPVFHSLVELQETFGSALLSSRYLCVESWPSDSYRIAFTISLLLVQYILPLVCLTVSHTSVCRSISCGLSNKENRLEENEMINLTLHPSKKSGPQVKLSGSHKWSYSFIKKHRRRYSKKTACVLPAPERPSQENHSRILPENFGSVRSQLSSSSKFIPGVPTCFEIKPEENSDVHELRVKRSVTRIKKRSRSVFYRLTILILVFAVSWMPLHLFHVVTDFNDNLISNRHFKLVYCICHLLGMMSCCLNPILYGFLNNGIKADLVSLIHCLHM
Source text: Pharmacological Test 1 (NPY Binding Inhibition Test)
cDNA sequence encoding human NPY Y5 receptor (c.f. International patent publication number WO96/16542) was cloned into expression vectors pcDNA3, pRc/RSV (made by Invitrogen Inc.) and pCI-neo (made by Promega Inc.). The expression vectors thus obtained were transfected to host cells COS-7, CHO and LM(tk-) (American Type Culture Collection) by cationic lipid method (Proceedings of the National Academy of Sciences of the United States of America, 84: 7413(1987)) to give NPY Y5 receptor expression cells.
A membrane sample prepared from the cells which expressed NPY Y5 receptor was incubated together with a test compound and [^125I]peptide YY (made by NEN) (20,000 cpm) in an assay buffer (25 mM Tris buffer, pH 7.4, containing 10 mM magnesium chloride, 1 mM phenylmethylsulfonyl fluoride, 0.1% bacitracin and 0.5% bovine serum albumin) at 25° C. for 2 hours, then filtered through a glass filter GF/C and washed with 5 mM Tris buffer (pH 7.4) containing 0.3% BSA. The radioactivity of the cake on the glass filter was measured. Non-specific binding was measured in the presence of 1 μM peptide YY, and a 50% Inhibitory Concentration (IC50) of the test compound against specific peptide YY binding was determined (Endocrinology, 131: 2090(1992)).

[2] = Brain/cerebrospinal fluid transport test; assay type: in vivo, male SD rats; details: rat, 2 hours after oral administration (10 mg/kg); for concentration at 2 h: male, SD
Procedure: Pharmacological Test 4 (Brain/Cerebrospinal Fluid Transport Test)
A test compound was orally or intravenously administered to male SD rats (7-10 weeks old, 200-400 g), and whole blood was collected from the abdominal aorta of said rats anesthetized with ether at predetermined time, using a heparin-treated syringe. Then, the head skin was cut open, and a dental 30 G needle was inserted between the cervical vertebrae, and it was further inserted into the cavum subarachnoideale. After 50 to 100 μL cerebrospinal fluid had been collected by a 1 ml-syringe through a tube connected to said dental 30 G needle, the brain was extracted. The blood sample was centrifuged (4° C., 6,000 r.p.m., 10 minutes) to collect the plasma, to which was added 3-fold amount of ethanol containing an internal standard, and the mixture was stirred. The brain sample was homogenized after addition of 2 ml water, an aliquot of the homogenate was taken and 3-fold amount of ethanol containing an internal standard was added thereto and stirred. The cerebrospinal fluid was stirred after adding 3-fold amount of ethanol containing an internal standard. The samples thus obtained were allowed to stand at −20° C. for 20 minutes, and then centrifuged (4° C., 12,000 g, 10 minutes). The supernatant was analyzed by LC/MS/MS, and the concentration of the test compound in the plasma, brain, and cerebrospinal fluid were measured by the method using a relative calibration curve.

[3] = Pharmacokinetics test (plasma concentration after oral or intravenous administration); assay type: in vivo; details: rat, male SD rats
Procedure: Pharmacological Test 3 (Pharmacokinetics Test)
A test compound was orally or intravenously administered to male SD rats (7-10 weeks old, 200-400 g) which abstained from food overnight. About 100 μL of blood was collected from the tail vein at predetermined time, using a heparinized capillary. The blood was centrifuged (4° C., 6,000 r.p.m., 10 minutes) to collect the plasma, to which was added 3-fold amount of ethanol containing an internal standard. The mixture was stirred, allowed to stand at −20° C. for 20 minutes, and then centrifuged (4° C., 10,000 r.p.m., 10 minutes). The supernatant was analyzed by LC/MS/MS, and the concentration of the test compound in the plasma was measured using a relative calibration curve.

| IC50 [1] [nM] | SMILES | further results |
| --- | --- | --- |
| 2.7 | O=C1OC2(CCC(c3nc4cnc(-c5cc(F)ccc5F)nc4[nH]3)CC2)c2cnccc21 (stereo not drawn) [Example 17, Trans-2-(2,5-difluorophenyl)-8-[3-oxospiro[6-azaisobenzofuran-1(3H),1′-cyclohexan]-4′yl]purine] |  |
| 2.3 | O=C1OC2(CCC(c3nc4cnc(-c5ccccc5F)nc4[nH]3)CC2)c2cnc(F)cc21 (stereo not drawn) [Example 20, Trans-8-[5-fluoro-3-oxospiro[6-azaisobenzofuran-1(3H),1′-cyclohexan]-4′-yl]-2-(2-fluorophenyl)purine] |  |
| 0.72 | O=C1OC2(CCC(c3nc4ccc(-c5ccccc5F)nc4[nH]3)CC2)c2cnccc21 (stereo not drawn) [Example 27, Trans-5-(2-fluorophenyl)-2-[3-oxospiro[6-azaisobenzofuran-1(3H),1′-cyclohexan]-4′-yl]imidazo[4,5-b]pyridine] |  |

Continued, compound first:

| SMILES | IC50 [1] [nM] | further results |
| --- | --- | --- |
| O=C1OC2(CCC(c3nc4cnc(-c5ccccc5)nc4[nH]3)CC2)c2ccccc21 (stereo not drawn) [Example 6, trans-8-[3′-oxospiro[cyclohexane-1,1′(3′H)-isobenzofuran]-4-yl]-2-phenylpurine] | 2.2 | concentration at 2 h ([2]; cerebrospinal fluid, read-out: concentration in the cerebrospinal fluid): 33 nM; concentration at 2 h ([2]; plasma, read-out: concentration in the plasma): 2770 nM; concentration in the brain [2]: 1.10 nmol/g; bioavailability ([3]; oral or intravenous administration): 78%; half-life ([3]; read-out: half-life in the blood (converted)): 3 h |
| O=C1OC2(CCC(c3nc4cnc(-c5ccccc5F)nc4[nH]3)CC2)c2ccccc21 (stereo not drawn) [Example 8, Trans-2-(2-fluorophenyl)-8-[3′-oxospiro[cyclohexane-1,1′(3′H)-isobenzofuran]-4-yl]purine] | 1.8 |  |
| O=C1OC2(CCC(c3nc4cnc(-c5ccc(F)cc5)nc4[nH]3)CC2)c2cnccc21 (stereo not drawn) [Example 13, Trans-2-(4-fluorophenyl)-8-[3-oxospiro[6-azaisobenzofuran-1(3H),1′-cyclohexan]-4′-yl]purine] | 2.9 |  |

Source: patent US7687514B2, “Benzimidazole derivatives” (Banyu Pharmaceuticals Co., Ltd., priority 2002, dated 2010)
